How the values were obtained:
human TGR5 [1] = target: T1, human TGR5 (Homo sapiens, UniProt Q8TDU6); assay: cAMP production increasing activity in human TGR5 expressing CHO cells; type: cell-based; details: test compound 1 μM, 30 min; 1 μM lithocholic acid = 100%, no addition = 0%; average of 3 groups
T1 construct: expressed in transfected cells; host or cells: CHO cells
T1 sequence (Q8TDU6 1-330): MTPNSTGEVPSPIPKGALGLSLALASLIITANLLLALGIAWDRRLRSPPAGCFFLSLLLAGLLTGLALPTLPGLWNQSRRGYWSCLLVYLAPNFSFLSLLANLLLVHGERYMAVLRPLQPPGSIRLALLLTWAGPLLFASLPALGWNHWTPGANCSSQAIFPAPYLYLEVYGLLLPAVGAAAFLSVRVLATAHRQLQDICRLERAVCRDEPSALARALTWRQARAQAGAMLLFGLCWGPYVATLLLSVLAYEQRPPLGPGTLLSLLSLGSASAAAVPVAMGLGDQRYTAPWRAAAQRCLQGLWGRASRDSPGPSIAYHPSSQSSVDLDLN
Method: As the assay buffer, Hank's balanced salt solution (HBSS, Invitrogen) supplemented with 0.1% bovine serum albumin (BSA, Sigma) and 0.5 mM 3-isobutyl-1-methylxanthine (IBMX, Sigma) was used. A test compound sample (1 μM) diluted with the assay buffer was added to the cells. The cells were incubated at 37° C. for 30 min. and the supernatant was suctioned. The intracellular cAMP amount increased by the stimulation of the test compound was quantitatively determined using a HitHunter™ EFC Cyclic AMP Chemiluminescence Assay Kit (ABI) kit.

THP-TGR5 cells = assay: suppression of LPS induced TNF α secretion in THP-TGR5 cells; type: cell-based, human; details: test compound 10 μM, non-addition: 11 with LPS, 2.7 without LPS
Method: TGR5 high expression cells were established by introducing TGR5 gene into human macrophage cells line THP-1. According to a conventional method, pcDNA-TGR5 incorporating cDNA of human TGR5 in pcDNA3.1 (Invitrogen) was prepared. Then, THP-1 was cultured in a medium (RPMI1640 10% FBS), and pcDNA-TGR5 was introduced thereinto using lipofectamine (Gibco BRL) according to conventional methods. Thereafter, G418 (Gibco BRL) was added to the medium to select resistant strains, and cells line, THP-TGR5 that expresses TGR5 stably and highly was established.
THP-TGR5 thus obtained was diluted to a concentration of 1×10^5/well and cultured overnight in a 96 well plate in the presence of 10^−8M phorbol ester (Wako Pure Chemical Industries, Ltd.). THP-TGR5 after culture was cultured for 1 hr in a medium containing a test compound or a control medium (0.1 ml) free of a test compound, 0.1 ml of a medium containing the same concentration of the test compound or a control medium free of the test compound, each of which containing LPS for induction of TNF α secretion was added (concentration at the time of addition 50 ng/ml) and the mixture was incubated at 37° C. under 5% CO2 for 14 hrs. The culture supernatant was collected and the TNF α content was measured with the growth suppressing effect on the TNF sensitive cell line L929 (RIKEN Institute) as an index.
L929 cells were seeded in a 96 well plate at 1.2×10^4/well and incubated overnight at 37° C. under 5% CO2. The obtained culture product was cultured overnight in a medium (phenol red free Dulbecco's Modified Eagle Medium (Invitrogen) supplemented with 10% fetal bovine serum (Invitrogen), 100 U/ml penicillin and 100 μg/ml streptomycin), which contained the aforementioned THP-TGR5-containing culture supernatant and 2 μg/ml Actinomycin D (Wako Pure Chemical Industries, Ltd.). The TNF α content was determined by measuring the growth of the L929 cells in the obtained culture product using a Cell Counting Kit-8 (Wako Pure Chemical Industries, Ltd.). As the standard sample, human recombinant TNF α (Genzyme) was used.

rat TGR5 = target: T2, rat TGR5 (Rattus norvegicus, UniProt Q80T02); assay: cAMP production increasing activity in rat type TGR5 expressing CHO cells; type: cell-based; details: 0.5 h, read-out: cAMP producing activity (control %)
T2 construct: expressed in transfected cells; host or cells: CHO cells
T2 sequence (Q80T02 1-329): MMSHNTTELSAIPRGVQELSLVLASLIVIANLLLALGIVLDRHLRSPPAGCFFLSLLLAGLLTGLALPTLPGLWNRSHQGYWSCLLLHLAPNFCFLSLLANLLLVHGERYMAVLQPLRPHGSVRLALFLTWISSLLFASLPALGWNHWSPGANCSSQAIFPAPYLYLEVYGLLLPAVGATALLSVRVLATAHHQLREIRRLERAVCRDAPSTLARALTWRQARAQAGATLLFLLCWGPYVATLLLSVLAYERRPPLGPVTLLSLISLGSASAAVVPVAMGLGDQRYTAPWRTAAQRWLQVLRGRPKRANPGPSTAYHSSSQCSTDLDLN
Method: (§1) After culture, the cells were detached with 0.5 mM EDTA/PBS, washed with PBS, and suspended in Buffer 1 (HBSS+0.1% BSA, 25 mM HEPES pH 7.3, 0.5 mM IBMX) at a density of 1×10^7 cells/ml. The obtained cell suspension (460 μl), anti-cAMP acceptor beads (23 μl) of AlphaScreen cAMP assay kit (Perkin Elmer) and Buffer 1 (667 μl) were mixed and dispensed to a white 96 well plate (Costar) by 10 μl. Then, a test compound diluted with Buffer 1 was added to each well by 10 μl. At this time, one row of the plate was free of the cell suspension but added with anti-cAMP acceptor beads (9 μl) and Buffer 1 (441 μl) alone, and serial dilutions of cAMP were added instead of the test compound and used as the standard. A mixture of the cell suspension and the test compound contained in the plate was allowed to react at room temperature for 30 min. […] The plate was shaken at room temperature for 2.5 hrs and fluorescence intensity was measured by Fusion α (Parkin Elmer), and the cAMP concentration of each well was calculated using the cAMP standard on each plate.

human TGR5 [2] = target: T1, human TGR5; assay: cAMP production increasing activity in human TGR5 expressing CHO cells; type: cell-based; details: read-out: EC50 value (concentration necessary to make the cAMP production amount 50%)
guinea pig TGR5 = assay: cAMP production increasing activity in guinea pig TGR5 expressing CHO cells; type: cell-based; details: test compound 2 μM; 10 μM lithocholic acid = 100%; average of 3 groups
Method: as §1, with “The guinea pig type TGR5 expressing CHO cells were seeded in one 150 cm^2 flask at 1×10^7 cells, and cultured overnight at 37° C., 5% CO2. After” for “After”

[3] = tested on: mock CHO cells free of human TGR5 expression; assay: cAMP production increasing activity in mock CHO cells free of human TGR5 expression; type: cell-based; details: average of 3 groups
Method: As the assay buffer, Hank's balanced salt solution (HBSS, Invitrogen) supplemented with 0.1% bovine serum albumin (BSA, Sigma) and 0.2 mM 3-isobutyl-1-methylxanthine (IBMX, Sigma) was used. The cells were washed twice with the assay buffer and preincubated at 37° C. for 30 min. The cells were washed twice, and test compound samples (10 μM) diluted with the assay buffer to various concentrations were added. The cells were incubated at 37° C. for 20 min. The culture supernatant was discarded, and the cAMP production amount was measured using a cAMP Screen System (ABI).

Row | activation at 2 µM (rat TGR5) [%] | Compound | EC50 (human TGR5 [2]) [nM] | cAMP producing activity (control %) (guinea pig TGR5) | also measured
1 | – | CC(=O)NCc1cccc([C@@H]2O[C@H](CC(=O)NCc3ccccc3F)C(=O)N(CC(C)(C)C)c3ccc(Cl)cc32)c1 (relative stereo) [Reference Example 3, 2-[3,5-trans-5-[3-(acetylaminomethyl)phenyl]-7-chloro-1-neopentyl-2-oxo-1,2,3,5-tetrahydro-4,1-benzoxazepin-3-yl]-N-(2-fluorobenzyl)acetamide] | – | – | cAMP production increasing activity (control %) (human TGR5 [1]): 85 control %; TNF α (THP-TGR5 cells): 0.33 ng/mL
2 | 101 | Fc1ccc(-c2ccnc3c2CN(Cc2cc(C(F)(F)F)cc(C(F)(F)F)c2)CCCCO3)cc1 [Example 61C, 6-[3,5-bis(trifluoromethyl)benzyl]-8-(4-fluorophenyl)-2,3,4,5,6,7-hexahydropyrido[2,3-b][1,5]oxazonine] | < 100 | – | –
3 | – | COC(=O)NCc1cccc([C@@H]2O[C@H](CC(=O)NCc3ccccc3F)C(=O)N(CC(C)(C)C)c3ccc(Cl)cc32)c1 (relative stereo) [Reference Example 6, methyl [3-[3,5-trans-7-chloro-3-[2-[(2-fluorobenzyl)amino]-2-oxoethyl]-1-neopentyl-2-oxo-1,2,3,5-tetrahydro-4,1-benzoxazepin-5-yl]benzyl]carbamate] | – | – | cAMP production increasing activity (control %) (human TGR5 [1]): 98 control %; TNF α (THP-TGR5 cells): 0.32 ng/mL
4 | 107 | CC(=O)NCc1cccc(C2OC(CC(=O)NCC3CCCCCC3)C(=O)N(CC(C)(C)C)c3ccc(Cl)cc32)c1 (stereo not drawn) [Example 17, 2-[3,5-trans-5-[3-(acetylaminomethyl)phenyl]-7-chloro-1-neopentyl-2-oxo-1,2,3,5-tetrahydro-4,1-benzoxazepin-3-yl]-N-(cycloheptylmethyl)acetamide] | < 100 | – | –
5 | – | CCOC(=O)CC1C(=O)N(CC(C)(C)C)c2ccccc2CN1C(=O)OC(C)(C)C (stereo not shown) [Reference Example 1B, tert-butyl 3-(2-ethoxy-2-oxoethyl)-1-neopentyl-2-oxo-1,2,3,5-tetrahydro-4H-1,4-benzodiazepine-4-carboxylate] | – | – | TNF α (THP-TGR5 cells): 0.63 ng/mL
6 | – | O=S(=O)(c1cccc2ccccc12)N1CCOc2nccc(-c3ccccc3)c2C1 [Example 42C, 4-(1-naphthylsulfonyl)-6-phenyl-2,3,4,5-tetrahydropyrido[3,2-f][1,4]oxazepine] | < 100 | 104 | –
7 | – | O=C(c1cc(Cl)cc(Cl)c1)N1CCOc2nccc(-c3ccccc3)c2C1 [Example 32C, 4-(3,5-dichlorobenzoyl)-6-phenyl-2,3,4,5-tetrahydropyrido[3,2-f][1,4]oxazepine] | – | 89 | –
8 | – | COC(=O)NCc1cccc(C2OC(CC(=O)NCc3ccccc3F)C(=O)N(CC(C)C)c3ccc(Cl)cc32)c1 (stereo not drawn) [Example 43, methyl [3-[3,5-trans-7-chloro-3-[2-[(2-fluorobenzyl)amino]-2-oxoethyl]-1-isobutyl-2-oxo-1,2,3,5-tetrahydro-4,1-benzoxazepin-5-yl]benzyl]carbamate] | < 100 | 82 | –
9 | 108 | CC(C)(C)CN1C(=O)C(CC(=O)NCc2ccccc2F)N(Cc2ccncc2)Cc2ccccc21 (stereo not shown) [Example 30B, N-(2-fluorobenzyl)-2-[1-neopentyl-2-oxo-4-(pyridin-4-ylmethyl)-2,3,4,5-tetrahydro-1H-1,4-benzodiazepin-3-yl]acetamide] | < 100 | – | –
10 | – | C=C[C@@]1(C)CC(=O)[C@]2(O)[C@@]3(C)[C@@H](O)CCC(C)(C)[C@@H]3[C@H](O)[C@H](OC(C)=O)[C@@]2(C)O1 [Forskolin, reference compound] | – | – | cAMP production increasing activity ([3]; Experimental Example 2, Forskolin 2 μM, Base 0.85): 4.02 pmol; cAMP production increasing activity ([3]; Experimental Example 4, test compounds 2 μM, Base 0.28): 5.68 pmol; cAMP production increasing activity ([3]; Experimental Example 5, test compounds 2 μM, Base 0.19): 3.01 pmol

Row | Compound | activation at 2 µM (rat TGR5) [%] | EC50 (human TGR5 [2]) [nM] | cAMP producing activity (control %) (guinea pig TGR5) | also measured
11 | COC(=O)NCc1cccc(C2OC(CC(=O)NCC3CCCCC3)C(=O)N(CC(C)(C)C)c3ccc(Cl)cc32)c1 (stereo not drawn) [Example 30, methyl [3-[3,5-trans-7-chloro-3-[2-[(cyclohexylmethyl)amino]-2-oxoethyl]-1-neopentyl-2-oxo-1,2,3,5-tetrahydro-4,1-benzoxazepin-5-yl]benzyl]carbamate] | 114 | < 100 | 86 | –

From patent publication US7625887B2, “Receptor agonists” (Takeda Pharmaceutical Company Limited, priority 2003, dated 2009)
